The source made the active and inactive calls.
How the values were obtained:
HEK293 [1] = test: inhibitors of LMP1-driven NF-kB reporter, dose response, cell-based, HEK293, luciferase, cherry-pick (AID 588343); assay type: functional; conditions: Homo sapiens
Protein skinhead-1 = target: T1, Protein skinhead-1 (Caenorhabditis elegans, UniProt P34707); assay type: functional
T1 sequence (P34707 whole entry): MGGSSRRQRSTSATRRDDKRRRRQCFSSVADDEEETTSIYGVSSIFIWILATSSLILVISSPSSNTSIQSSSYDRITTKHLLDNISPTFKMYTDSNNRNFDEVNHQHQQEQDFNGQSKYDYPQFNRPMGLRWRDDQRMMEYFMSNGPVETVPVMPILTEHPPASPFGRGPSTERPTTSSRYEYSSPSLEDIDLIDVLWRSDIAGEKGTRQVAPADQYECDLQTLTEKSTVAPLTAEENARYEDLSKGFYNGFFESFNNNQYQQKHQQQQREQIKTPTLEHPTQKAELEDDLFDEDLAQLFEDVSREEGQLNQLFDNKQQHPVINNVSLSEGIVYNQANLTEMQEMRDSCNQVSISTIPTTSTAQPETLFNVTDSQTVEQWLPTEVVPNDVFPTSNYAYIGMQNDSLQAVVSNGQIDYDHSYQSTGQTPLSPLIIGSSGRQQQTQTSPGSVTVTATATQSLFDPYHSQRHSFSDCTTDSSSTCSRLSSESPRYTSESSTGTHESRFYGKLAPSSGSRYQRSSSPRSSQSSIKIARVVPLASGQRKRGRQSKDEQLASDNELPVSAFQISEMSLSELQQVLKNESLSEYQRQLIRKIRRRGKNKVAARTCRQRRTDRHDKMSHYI

HEK293 [2] = test: cells; assay type: functional, cell-based; conditions: Homo sapiens
HEK293 [3] = test: NOD2 signaling inhibitors in MDP-stimulated cells, cell-based, uHTS, luminescence (AID 2001); assay type: functional; conditions: Homo sapiens
[4] = Luminescence Cell-Based Secondary HTS screen to identify cytotoxic compounds of NIH3T3 cells. [Related pubchem assays: 1885, 1968 ]; assay type: functional
[5] = target: T2, RNA-binding protein pos-1 (Caenorhabditis elegans, UniProt G5EF15); test: inhibitors of POS-1/mex-3 RNA binding, dose response, biochemical, fluorescence polarization (AID 1964);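 note: purified POS-1 fused to maltose binding protein made in E. coli; potency of compounds blocking POS-1 binding to fluorescent RNA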
T2 sequence (G5EF15 whole entry): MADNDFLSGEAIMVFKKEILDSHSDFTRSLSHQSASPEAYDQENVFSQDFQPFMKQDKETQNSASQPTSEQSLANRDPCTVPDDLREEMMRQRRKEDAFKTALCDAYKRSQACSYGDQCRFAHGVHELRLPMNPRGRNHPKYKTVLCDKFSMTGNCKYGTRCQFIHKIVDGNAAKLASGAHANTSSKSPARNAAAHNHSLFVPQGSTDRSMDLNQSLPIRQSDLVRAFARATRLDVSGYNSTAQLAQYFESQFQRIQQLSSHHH

[6] = target: T3, Sentrin-specific protease 6 (Homo sapiens, UniProt Q9GZR1); assay type: functional;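 note: Luminescence-based dose-response confirmatory assay of SENP6 inhibition, following up an ultra-high-throughput screen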
T3 sequence (Q9GZR1 whole entry): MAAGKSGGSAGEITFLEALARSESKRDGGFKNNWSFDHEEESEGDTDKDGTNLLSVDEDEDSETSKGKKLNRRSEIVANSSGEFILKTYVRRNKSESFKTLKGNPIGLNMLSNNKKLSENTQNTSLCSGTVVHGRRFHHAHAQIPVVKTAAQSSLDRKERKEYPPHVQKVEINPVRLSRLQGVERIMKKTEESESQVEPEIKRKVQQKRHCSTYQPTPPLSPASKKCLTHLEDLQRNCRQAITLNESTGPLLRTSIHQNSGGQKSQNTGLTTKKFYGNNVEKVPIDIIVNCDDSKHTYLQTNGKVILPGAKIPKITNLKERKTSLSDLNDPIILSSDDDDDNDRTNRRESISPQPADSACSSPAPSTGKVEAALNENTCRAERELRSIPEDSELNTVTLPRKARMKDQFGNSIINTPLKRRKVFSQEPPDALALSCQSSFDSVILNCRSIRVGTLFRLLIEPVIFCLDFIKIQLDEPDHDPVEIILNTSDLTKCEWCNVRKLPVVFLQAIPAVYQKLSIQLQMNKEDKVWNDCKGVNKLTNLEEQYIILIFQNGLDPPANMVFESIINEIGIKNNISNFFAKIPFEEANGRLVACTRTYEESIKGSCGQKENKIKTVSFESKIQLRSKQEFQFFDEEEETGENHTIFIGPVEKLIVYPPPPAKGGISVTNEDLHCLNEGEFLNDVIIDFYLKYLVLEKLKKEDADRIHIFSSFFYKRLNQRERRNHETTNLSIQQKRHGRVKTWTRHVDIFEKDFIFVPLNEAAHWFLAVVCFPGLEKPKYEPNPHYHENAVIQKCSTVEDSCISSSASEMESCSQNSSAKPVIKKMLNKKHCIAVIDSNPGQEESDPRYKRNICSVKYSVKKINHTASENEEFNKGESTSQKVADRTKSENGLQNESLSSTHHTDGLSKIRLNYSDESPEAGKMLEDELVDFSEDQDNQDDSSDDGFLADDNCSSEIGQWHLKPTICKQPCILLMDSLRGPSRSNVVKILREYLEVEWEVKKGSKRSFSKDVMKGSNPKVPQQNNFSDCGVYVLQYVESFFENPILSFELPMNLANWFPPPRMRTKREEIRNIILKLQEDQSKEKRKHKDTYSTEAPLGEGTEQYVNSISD

[7] = target: Sphingosine 1-phosphate receptor 1 (Homo sapiens, UniProt P21453); assay type: functional;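 note: Tango beta-arrestin reporter U2OS cells stimulated with S1P near its EC80; inhibitor potency meaning antagonism of receptor activation by the natural agonist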
Chain of Sphingosine 1-phosphate receptor 1 (P21453 whole entry, the tested form may be a part): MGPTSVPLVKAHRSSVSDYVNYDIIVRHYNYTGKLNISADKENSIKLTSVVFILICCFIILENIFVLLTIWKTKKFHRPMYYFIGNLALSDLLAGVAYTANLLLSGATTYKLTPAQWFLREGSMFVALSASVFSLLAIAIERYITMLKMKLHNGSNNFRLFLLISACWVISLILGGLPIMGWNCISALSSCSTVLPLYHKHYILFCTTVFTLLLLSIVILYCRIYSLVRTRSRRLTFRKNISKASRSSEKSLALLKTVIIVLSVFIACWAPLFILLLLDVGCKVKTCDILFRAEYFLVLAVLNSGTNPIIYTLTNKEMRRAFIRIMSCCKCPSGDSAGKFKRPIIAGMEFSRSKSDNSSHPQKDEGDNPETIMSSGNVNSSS

Fatty acid synthase = Fatty acid synthase (Homo sapiens, UniProt P49327); test: FAS thioesterase domain inhibitors, dose response, biochemical, endpoint fluorescence intensity, uHTS hits (AID 624327); assay type: functional;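 note: fluorescence from hydrolysis of an O-methyl fluorescein acyl ester substrate by the enzyme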
Chain of Fatty acid synthase (P49327 whole entry, the tested form may be a part): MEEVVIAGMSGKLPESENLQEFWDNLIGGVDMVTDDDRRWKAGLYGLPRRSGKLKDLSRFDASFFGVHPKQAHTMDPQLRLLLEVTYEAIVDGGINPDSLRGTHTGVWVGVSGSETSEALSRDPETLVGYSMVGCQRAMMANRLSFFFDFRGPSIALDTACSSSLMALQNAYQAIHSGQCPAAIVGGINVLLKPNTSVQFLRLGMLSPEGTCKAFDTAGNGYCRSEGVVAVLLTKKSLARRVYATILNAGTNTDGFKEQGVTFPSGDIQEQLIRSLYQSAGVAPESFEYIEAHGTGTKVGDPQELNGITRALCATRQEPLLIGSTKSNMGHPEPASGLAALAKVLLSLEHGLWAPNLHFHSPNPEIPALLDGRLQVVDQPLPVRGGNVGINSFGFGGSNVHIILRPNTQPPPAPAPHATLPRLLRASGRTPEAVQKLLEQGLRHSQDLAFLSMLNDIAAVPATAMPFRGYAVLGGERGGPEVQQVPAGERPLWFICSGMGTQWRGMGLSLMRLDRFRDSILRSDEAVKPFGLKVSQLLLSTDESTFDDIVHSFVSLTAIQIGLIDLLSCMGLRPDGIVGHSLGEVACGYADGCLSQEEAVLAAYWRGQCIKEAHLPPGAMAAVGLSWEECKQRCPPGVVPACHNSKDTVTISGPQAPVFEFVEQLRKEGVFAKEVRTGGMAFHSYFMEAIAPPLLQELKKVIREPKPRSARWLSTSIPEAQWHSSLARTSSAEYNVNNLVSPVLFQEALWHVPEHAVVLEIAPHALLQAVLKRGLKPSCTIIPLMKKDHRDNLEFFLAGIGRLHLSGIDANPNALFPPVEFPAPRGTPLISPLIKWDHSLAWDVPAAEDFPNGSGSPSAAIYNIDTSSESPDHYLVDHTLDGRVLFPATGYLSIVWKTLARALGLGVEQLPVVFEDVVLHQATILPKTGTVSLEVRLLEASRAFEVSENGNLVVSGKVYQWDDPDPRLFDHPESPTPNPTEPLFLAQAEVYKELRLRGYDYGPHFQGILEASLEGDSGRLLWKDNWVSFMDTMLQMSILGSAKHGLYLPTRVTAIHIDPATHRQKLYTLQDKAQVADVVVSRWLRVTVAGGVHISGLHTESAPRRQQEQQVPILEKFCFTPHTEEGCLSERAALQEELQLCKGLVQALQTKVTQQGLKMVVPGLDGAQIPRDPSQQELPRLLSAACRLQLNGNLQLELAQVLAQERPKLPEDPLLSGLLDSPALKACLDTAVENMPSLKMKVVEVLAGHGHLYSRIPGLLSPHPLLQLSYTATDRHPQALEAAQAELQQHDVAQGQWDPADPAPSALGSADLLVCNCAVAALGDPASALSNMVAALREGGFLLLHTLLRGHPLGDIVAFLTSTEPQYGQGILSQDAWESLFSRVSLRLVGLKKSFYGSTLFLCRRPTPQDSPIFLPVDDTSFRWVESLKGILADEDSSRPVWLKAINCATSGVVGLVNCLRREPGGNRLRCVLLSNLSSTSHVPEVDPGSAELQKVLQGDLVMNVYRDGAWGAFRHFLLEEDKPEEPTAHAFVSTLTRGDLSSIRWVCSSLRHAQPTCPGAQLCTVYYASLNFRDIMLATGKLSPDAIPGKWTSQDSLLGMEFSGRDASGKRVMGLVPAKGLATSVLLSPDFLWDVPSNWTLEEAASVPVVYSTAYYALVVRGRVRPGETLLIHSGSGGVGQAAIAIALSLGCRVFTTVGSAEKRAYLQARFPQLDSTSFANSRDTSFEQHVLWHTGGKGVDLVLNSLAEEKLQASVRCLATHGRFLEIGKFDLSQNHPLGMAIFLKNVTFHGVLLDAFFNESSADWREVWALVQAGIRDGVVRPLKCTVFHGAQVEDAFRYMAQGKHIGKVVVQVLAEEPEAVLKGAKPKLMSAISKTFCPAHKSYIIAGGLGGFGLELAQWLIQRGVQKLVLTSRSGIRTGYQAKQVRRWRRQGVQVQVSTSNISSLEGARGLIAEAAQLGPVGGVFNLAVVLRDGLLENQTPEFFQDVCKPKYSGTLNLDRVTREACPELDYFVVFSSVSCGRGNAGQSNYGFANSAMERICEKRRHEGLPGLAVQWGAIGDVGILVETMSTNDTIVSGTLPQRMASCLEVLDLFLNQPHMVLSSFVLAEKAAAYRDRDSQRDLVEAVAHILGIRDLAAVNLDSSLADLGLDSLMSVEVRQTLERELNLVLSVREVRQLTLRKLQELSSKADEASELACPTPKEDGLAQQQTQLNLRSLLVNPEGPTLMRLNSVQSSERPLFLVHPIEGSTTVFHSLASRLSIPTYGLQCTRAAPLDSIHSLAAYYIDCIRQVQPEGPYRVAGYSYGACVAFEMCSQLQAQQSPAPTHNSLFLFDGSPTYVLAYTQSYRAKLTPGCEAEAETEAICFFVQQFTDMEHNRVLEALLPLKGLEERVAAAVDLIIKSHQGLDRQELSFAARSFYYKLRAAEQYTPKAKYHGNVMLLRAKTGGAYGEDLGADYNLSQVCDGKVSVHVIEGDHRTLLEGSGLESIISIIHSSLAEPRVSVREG

[8] = target: T4, Rac GTPase-activating protein 1 (Homo sapiens, UniProt Q9H0H5); test: MgcRacGAP GTPase-activating activity inhibitors, confirmation, biochemical, ADP Hunter fluorescence, primary and confirmatory (AID 624330); assay type: functional
T4 sequence (Q9H0H5 whole entry): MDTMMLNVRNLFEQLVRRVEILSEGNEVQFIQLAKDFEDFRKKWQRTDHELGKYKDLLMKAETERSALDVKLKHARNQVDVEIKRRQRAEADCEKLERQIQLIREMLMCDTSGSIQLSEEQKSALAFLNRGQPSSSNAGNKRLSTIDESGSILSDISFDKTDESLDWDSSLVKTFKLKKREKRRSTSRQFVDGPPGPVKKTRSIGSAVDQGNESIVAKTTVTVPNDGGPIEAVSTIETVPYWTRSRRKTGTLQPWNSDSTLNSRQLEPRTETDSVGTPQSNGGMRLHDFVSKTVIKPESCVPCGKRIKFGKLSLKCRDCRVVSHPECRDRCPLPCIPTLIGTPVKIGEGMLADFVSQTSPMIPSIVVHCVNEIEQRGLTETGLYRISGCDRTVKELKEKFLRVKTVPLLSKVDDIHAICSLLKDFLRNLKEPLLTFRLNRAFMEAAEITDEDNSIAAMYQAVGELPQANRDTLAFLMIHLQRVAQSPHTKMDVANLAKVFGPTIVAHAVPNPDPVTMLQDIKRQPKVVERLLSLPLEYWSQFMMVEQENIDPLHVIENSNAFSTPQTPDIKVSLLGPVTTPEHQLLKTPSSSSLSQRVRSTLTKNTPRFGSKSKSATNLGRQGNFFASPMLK

Q: For O=C(CC(O)(C(F)(F)F)C(F)(F)F)Nc1ccc(Cl)c(Cl)c1, which AC50 (HEK293 [1]) is on record?
A: 1.34 µM (active)

Q: What about the IC50 (Protein skinhead-1) of the same compound?
A: 19.6 µM (active)

Q: What does the source list for O=C(CNc1cccc2ccccc12)N/N=C/c1ccc([N+](=O)[O-])o1?
A: IC50 (HEK293 [2]): 14.3 µM (active); IC50 (HEK293 [3]): 11.5 µM (inactive); EC50 [4]: 17.5 µM (active)

Q: Which EC50 [5] does the source give for O=C(O)CSc1cc(NS(=O)(=O)c2ccc(Br)cc2)c2ccccc2c1O here?
A: 20.7 µM (active)

Q: Which IC50 [6] does the source give for O=C1NC(=S)N/C1=C/c1cc2c(cc1[N+](=O)[O-])OCO2 here?
A: 14.1 µM (active)

Q: Which IC50 [7] does the source give for Cc1ccc(NC(=O)C2=C(c3ccccc3)S(=O)(=O)CCS2(=O)=O)cc1 here?
A: 68.8 µM (not active)

Q: And the IC50 (Fatty acid synthase)?
A: 3.96 µM (active)

Q: And the IC50 [8]?
A: 97.4 µM (active)

— ChEMBL document CHEMBL1201862, “PubChem BioAssay data set” (2004)
